Source: article PMC9926234, “Iterative computational design and crystallographic screening identifies potent inhibitors targeting the Nsp3 macrodomain of SARS-CoV-2” (Proceedings of the National Academy of Sciences of the …, 2023)
Read-outs that look alike come from different tables or passages of the source.

Legend:
SARS-CoV-2 NSP3 Mac1 [1] = assay: Overall hit call (binding in crystallographic soaking or the HTRF-based binding assay)
Excerpt: Supplement pnas.2212931120.sd01.xlsx, sheet "Compound Summary" | column: HIT*

SARS-CoV-2 NSP3 Mac1 [2] = molecular target: T1, SARS-CoV-2 NSP3 Mac1 (Severe acute respiratory syndrome coronavirus 2, UniProt P0DTD1); format: binding; conditions: for Refined occupancy: ligand occupancy after refinement (phenix.refine); for binding to Mac1 in crystal soaking, result in words: soaks at 10 to 20 mM
SARS-CoV-2 NSP3 Mac1 [3] = molecular target: T1, SARS-CoV-2 NSP3 Mac1; format: binding; parameters: contains a conserved macrodomain enzyme (Mac1); conditions: for Spearman est (compound concentration vs apparent Tm): DSF dose responsiveness, 1 µM nsp3 mac1, adj p given
In short: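 ΔTma values are thermal shifts relative to a co-located DMSO-only control, read with 5 µM Fluorescent Yellow dye. Each compound was tested in triplicate over seven concentrations (two-fold steps, top 1,000 or 100 μM). Spearman correlation of concentration versus ΔTma tested whether the shift was dose-responsive.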

SARS-CoV-2 NSP3 Mac1 [4] = molecular target: T1, SARS-CoV-2 NSP3 Mac1; assay: biochemical; format: binding; conditions: for Ki: Ki estimation from HTRF-derived IC50, Cheng-Prusoff, peptide 400nM, Kd 2.68µM, read-out: Ki***; for IC50: read-out: IC50
[5] = PanDDA event map, 1 minus background density correction, crystal soaking of Mac1
[6] = PanDDA 1-BDC value of the event, crystal soak, compound concentration 100 mM, per dataset
[7] = crystal soak, compound concentration 100 mM, per dataset
[8] = ligand modeled in the crystal structure, crystal soak, compound concentration 100 mM, per dataset
[9] = true hit = binding in crystallographic soaking or the HTRF-based binding assay
[10] = ligand modeled from this dataset, compound concentration 100 mM, Echo dispense volume 40 or 80 nl
[11] = maximal thermal upshift vs DMSO control
[12] = HTRF ADPr-peptide displacement from SARS-CoV-2 Mac1
[13] = overall hit flag: binding in crystallographic soaking or the HTRF-based binding assay

COC(=O)C1(CO)CCN(c2ncnc3[nH]c4cc(F)ccc4c23)C1 (centres unmarked) [Z9556]
HIT* (SARS-CoV-2 NSP3 Mac1 [1]): Y

O=S1(=O)CCC1CNc1ncnc2[nH]c3cc(F)ccc3c12 (centres unmarked) [LRH-0012]
1-BDC (SARS-CoV-2 NSP3 Mac1 [2]; PanDDA 1-BDC of the event, compound stock 100 mM, Echo dispense volume 80 nl): 0.06
1-BDC (SARS-CoV-2 NSP3 Mac1 [2]; PanDDA event map 1-BDC, crystal soak, Compound_concentration 100 mM, PanDDA run dmso_34 or nohits_35 per dataset): 0.07
1-BDC (PanDDA) (SARS-CoV-2 NSP3 Mac1 [2]; [5]): 0.07
PanDDA hit? (SARS-CoV-2 NSP3 Mac1 [2]; crystal soak, Compound_concentration 100 mM, Echo dispense 40 nl, PanDDA run dmso_34 or nohits_35 per dataset): TRUE
PanDDA hit? (SARS-CoV-2 NSP3 Mac1 [2]; crystal soak, compound stock 100 mM, Echo dispense volume 80 nl): TRUE
Modeled? (SARS-CoV-2 NSP3 Mac1 [2]; ligand modeled in this dataset, crystal soak, Compound_concentration 100 mM): TRUE
Refined occupancy (SARS-CoV-2 NSP3 Mac1 [2]; crystal soaking of Mac1): 14
HIT* (SARS-CoV-2 NSP3 Mac1 [1]): Y

CC(F)(F)c1cncc(C(=O)NC(Cc2cncc(Br)c2)C(=O)O)c1 (centres unmarked) [Z3140]
HIT* (SARS-CoV-2 NSP3 Mac1 [1]): Y

O=C(Nc1ccc(C(=O)N[C@H]2c3ccccc3CC[C@H]2C(=O)O)cc1)NC1CC1 [8539_0030]
Spearman est (compound concentration vs apparent Tm) (SARS-CoV-2 NSP3 Mac1 [3]): 0.86
DSF max dTma (SARS-CoV-2 NSP3 Mac1 [3]; maximal thermal upshift): 4.92 ˚C
Ki (SARS-CoV-2 NSP3 Mac1 [4]): 5.1 µM
1-BDC (SARS-CoV-2 NSP3 Mac1 [2]; [6]): 0.32
1-BDC (SARS-CoV-2 NSP3 Mac1 [2]; [5]): 0.32
PanDDA hit? (SARS-CoV-2 NSP3 Mac1 [2]; [7]): TRUE
Modeled? (SARS-CoV-2 NSP3 Mac1 [2]; [8]): TRUE
Refined occupancy (SARS-CoV-2 NSP3 Mac1 [2]; crystal soaking of Mac1): 64
HIT* (SARS-CoV-2 NSP3 Mac1 [2]; [9]): Y

O=C(O)Cc1cccc(CNC(=O)c2ncnc3ccsc23)c1 [Z5712]
HIT* (SARS-CoV-2 NSP3 Mac1 [1]): Y

O=C(O)c1ccc(F)c(CNC(=O)c2ccc3[nH]ccc3c2)c1 [Z7647]
HIT* (SARS-CoV-2 NSP3 Mac1 [1]): Y

O=C(O)CC1CN(c2ncnc3[nH]ccc23)CC2(CCC2)O1 (centres unmarked) [F6831]
Spearman est (compound concentration vs apparent Tm) (SARS-CoV-2 NSP3 Mac1 [3]): 0.94
DSF max dTma (SARS-CoV-2 NSP3 Mac1 [3]; maximal thermal upshift): 2.21 ˚C
IC50 (SARS-CoV-2 NSP3 Mac1 [4]; HTRF): 44.2 µM
Ki (SARS-CoV-2 NSP3 Mac1 [4]): 38.5 µM
binding to Mac1 in crystal soaking, result in words (SARS-CoV-2 NSP3 Mac1 [2]): not confirmed by X-ray crystallography
HIT* (SARS-CoV-2 NSP3 Mac1 [2]; [9]): Y

CC(Cc1ccco1)C(=O)N[C@@H](CC(=O)O)c1ccc2c(c1)OCO2 (some centres unmarked) [Z1877]
HIT* (SARS-CoV-2 NSP3 Mac1 [1]): Y

O=C1COc2cc(C(=O)NC3c4cccc(O)c4CC3C(=O)O)ccc2N1 (centres unmarked) [8539_0014]
Spearman est (compound concentration vs apparent Tm) (SARS-CoV-2 NSP3 Mac1 [3]): 0.59
DSF max dTma (SARS-CoV-2 NSP3 Mac1 [3]; maximal thermal upshift): 1.83 ˚C
Ki (SARS-CoV-2 NSP3 Mac1 [4]): 24.3 µM
1-BDC (SARS-CoV-2 NSP3 Mac1 [2]; [6]): 0.29
1-BDC (SARS-CoV-2 NSP3 Mac1 [2]; [5]): 0.29
PanDDA hit? (SARS-CoV-2 NSP3 Mac1 [2]; [7]): TRUE
Modeled? (SARS-CoV-2 NSP3 Mac1 [2]; [10]): TRUE
Refined occupancy (SARS-CoV-2 NSP3 Mac1 [2]; crystal soaking of Mac1): 58
HIT* (SARS-CoV-2 NSP3 Mac1 [2]; [9]): Y

O=C(NC1c2ccccc2CC1C(=O)O)c1ccc(NC(=O)C2CC2)cc1 (centres unmarked) [Z9604]
Spearman est (compound concentration vs apparent Tm) (SARS-CoV-2 NSP3 Mac1 [3]): 0.76
DSF max dTma (SARS-CoV-2 NSP3 Mac1 [3]; [11]): 0.79 °C
IC50 (SARS-CoV-2 NSP3 Mac1 [4]; [12]): > 250 µM
1-BDC (SARS-CoV-2 NSP3 Mac1 [2]; [6]): 0.04
1-BDC (SARS-CoV-2 NSP3 Mac1 [2]; [5]): 0.04
PanDDA hit? (SARS-CoV-2 NSP3 Mac1 [2]; [7]): TRUE
Modeled? (SARS-CoV-2 NSP3 Mac1 [2]; [8]): TRUE
Refined occupancy (SARS-CoV-2 NSP3 Mac1 [2]; crystal soaking of Mac1): 8
HIT* (SARS-CoV-2 NSP3 Mac1 [2]; [13]): Y

O=C(NC1c2cccc(O)c2CC1C(=O)O)c1ccc(NCC2CC2)nc1 (centres unmarked) [8539_0009]
Spearman est (compound concentration vs apparent Tm) (SARS-CoV-2 NSP3 Mac1 [3]): 0.34
DSF max dTma (SARS-CoV-2 NSP3 Mac1 [3]; maximal thermal upshift): 2.03 ˚C
Ki (SARS-CoV-2 NSP3 Mac1 [4]): 14.9 µM
1-BDC (SARS-CoV-2 NSP3 Mac1 [2]; [6]): 0.18
1-BDC (SARS-CoV-2 NSP3 Mac1 [2]; [5]): 0.24
PanDDA hit? (SARS-CoV-2 NSP3 Mac1 [2]; [7]): TRUE
Modeled? (SARS-CoV-2 NSP3 Mac1 [2]; [10]): TRUE
Refined occupancy (SARS-CoV-2 NSP3 Mac1 [2]; crystal soaking of Mac1): 70
HIT* (SARS-CoV-2 NSP3 Mac1 [2]; [9]): Y

Cc1[nH]c2ncnc(N3CCOC(CC(F)(F)F)C3)c2c1C (centres unmarked) [Z2051]
Spearman est (compound concentration vs apparent Tm) (SARS-CoV-2 NSP3 Mac1 [3]): 0.51
DSF max dTma (SARS-CoV-2 NSP3 Mac1 [3]; [11]): 0.51 °C
IC50 (SARS-CoV-2 NSP3 Mac1 [4]; [12]): 137 µM
IC50 (SARS-CoV-2 NSP3 Mac1 [4]; HTRF, several values in a cell are separate determinations): 137 µM
Ki (SARS-CoV-2 NSP3 Mac1 [4]): 119 µM
HIT* (SARS-CoV-2 NSP3 Mac1 [2]; [13]): Y
binding to Mac1 in crystal soaking, result in words (SARS-CoV-2 NSP3 Mac1 [2]): not confirmed by X-ray crystallography

CC(=O)Nc1nc(C)c(S(=O)(=O)Nc2ccc(C)c(C#N)c2)s1 [Z6707]
HIT* (SARS-CoV-2 NSP3 Mac1 [1]): Y

CO[C@@H]1CN(c2ncnc3[nH]c4cc(F)ccc4c23)C[C@@H](CO)O1 [Z8973]
HIT* (SARS-CoV-2 NSP3 Mac1 [1]): Y

O=C(NS(=O)(=O)Cc1ccc(Br)c(F)c1)c1cnn2ccccc12 [Z3209]
HIT* (SARS-CoV-2 NSP3 Mac1 [1]): Y
